Source: ChEMBL document CHEMBL1201862, “PubChem BioAssay data set” (2004)
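How tested: cells in 96-well plates exposed to compound for 48 hours at five concentrations. GI50 = concentration required for 50% inhibition of growth.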 Activity calls are given as the source filed them. Cut-off read from the data, not from the text of the source: active = GI50 up to about 1.1 µM and inactive = higher.

How the values were obtained:
Assay in all cases: inhibition of tumour cell growth, NCI panel, 48 h
CCRF-CEM = tested on: CCRF-CEM
EKVX = tested on: EKVX
HCC 2998 = tested on: HCC 2998
HOP-92 = tested on: HOP-92
Hs-578T = tested on: Hs-578T
LOX IMVI = tested on: LOX IMVI
MCF7 = tested on: MCF7
MDA-MB-435 = tested on: MDA-MB-435
NCI-H226 = tested on: NCI-H226
NCI-H23 = tested on: NCI-H23
OVCAR-8 = tested on: OVCAR-8
SF-539 = tested on: SF-539
SK-MEL-2 = tested on: SK-MEL-2
SN12C = tested on: SN12C
SNB-19 = tested on: SNB-19
T47D = tested on: T47D
U-251 = tested on: U-251
UACC-257 = tested on: UACC-257
SR = tested on: SR

Measured: GI50

CCOC(=O)C1=CNC2=N[C@H]3CCCC[C@@H]3N2C1=O
inactive: CCRF-CEM > 100 µM | EKVX > 100 µM | HCC 2998 > 100 µM | HOP-92 > 100 µM | Hs-578T > 100 µM | LOX IMVI > 100 µM | MCF7 > 100 µM | MDA-MB-435 > 100 µM | NCI-H226 > 100 µM | NCI-H23 > 100 µM | OVCAR-8 > 100 µM | SF-539 > 100 µM | SK-MEL-2 > 100 µM | SN12C > 100 µM | SNB-19 > 100 µM | T47D > 100 µM | U-251 > 100 µM | UACC-257 > 100 µM

COc1cc2c(c(O)c1OC)C(O)C1CCC(=O)N1C2c1cccc2ccccc12 (configuration not stated)
inactive: CCRF-CEM 81.7 µM | EKVX 67.8 µM | HOP-92 > 100 µM | Hs-578T 48 µM | MCF7 > 100 µM | MDA-MB-435 51.4 µM | NCI-H226 > 100 µM | NCI-H23 > 100 µM | OVCAR-8 > 100 µM | SF-539 > 100 µM | SK-MEL-2 > 100 µM | SN12C > 100 µM | SNB-19 > 100 µM | SR > 100 µM | T47D > 100 µM | U-251 > 100 µM | UACC-257 > 100 µM

NC(=S)Nc1nc(=S)[nH]c2[nH]ccc12
inactive: CCRF-CEM 24.2 µM | EKVX 94.2 µM | HOP-92 > 100 µM | Hs-578T 23.4 µM | LOX IMVI 27.7 µM | MCF7 91.2 µM | MDA-MB-435 30.9 µM | NCI-H226 > 100 µM | NCI-H23 > 100 µM | OVCAR-8 49.3 µM | SF-539 > 100 µM | SK-MEL-2 > 100 µM | SN12C > 100 µM | SNB-19 > 100 µM | SR 29.4 µM | T47D 58.2 µM | U-251 93.1 µM | UACC-257 > 100 µM

CN(N=O)C(=N)NC(=O)c1ccccc1
inactive: CCRF-CEM > 100 µM | EKVX 61.2 µM | HOP-92 > 100 µM | Hs-578T > 100 µM | LOX IMVI 49.2 µM | MCF7 54.7 µM | MDA-MB-435 > 100 µM | NCI-H226 > 100 µM | NCI-H23 > 100 µM | OVCAR-8 > 100 µM | SF-539 62.1 µM | SK-MEL-2 > 100 µM | SNB-19 > 100 µM | SR 4.33 µM | T47D > 100 µM | U-251 > 100 µM | UACC-257 > 100 µM

Clc1nc(Cl)c(Cc2ccccc2)c(Cl)n1
inactive: CCRF-CEM 3.27 µM | EKVX 19 µM | HCC 2998 13.7 µM | Hs-578T 2.66 µM | LOX IMVI 3.03 µM | MCF7 5.12 µM | MDA-MB-435 4.32 µM | NCI-H226 13.3 µM | NCI-H23 8.32 µM | OVCAR-8 4.34 µM | SF-539 5.3 µM | SK-MEL-2 7.45 µM | SN12C 4.39 µM | SNB-19 17.9 µM | SR 4.26 µM | T47D 9.12 µM | U-251 11.7 µM | UACC-257 > 10 µM

O=C1OC(C2Cc3ccc4c(c3C2=O)CCCC4)c2ccccc21 (configuration not stated)
inactive: CCRF-CEM 15.3 µM | EKVX 44.6 µM | HCC 2998 30.8 µM | Hs-578T 18 µM | LOX IMVI 25.5 µM | MCF7 33.9 µM | MDA-MB-435 38.8 µM | NCI-H226 20.6 µM | NCI-H23 42.7 µM | OVCAR-8 43.9 µM | SF-539 24.7 µM | SK-MEL-2 24.5 µM | SN12C 28.5 µM | SNB-19 44.5 µM | SR > 10 µM | T47D 63 µM | U-251 39.6 µM | UACC-257 52.2 µM

CC(C)(C)OC(=O)NC(Cc1ccc(OC(C)(C)C)cc1)C(=O)N[C@H]1CC[C@H](C(=O)O)C1 (some centres not stated)
inactive: CCRF-CEM > 100 µM | EKVX > 100 µM | HCC 2998 > 100 µM | Hs-578T > 100 µM | LOX IMVI > 100 µM | MCF7 > 100 µM | MDA-MB-435 > 100 µM | NCI-H226 > 100 µM | NCI-H23 > 100 µM | OVCAR-8 > 100 µM | SF-539 > 100 µM | SK-MEL-2 > 100 µM | SN12C > 100 µM | SNB-19 > 100 µM | SR > 100 µM | T47D > 10 µM | U-251 > 100 µM | UACC-257 > 100 µM

CC(=O)NC1C(OCc2ccccc2)OC(CO)C(O)C1OCC(=O)NC(C)C(=O)NC(CCC(=O)NCCCCCC(=O)Nc1ccc2c(c1)CN1C(=O)c3ccccc3C1=N2)C(N)=O (configuration not stated)
inactive: CCRF-CEM 32.7 µM | EKVX > 100 µM | HCC 2998 61.4 µM | HOP-92 25.3 µM | Hs-578T > 100 µM | LOX IMVI 53.1 µM | MCF7 35.6 µM | MDA-MB-435 > 100 µM | NCI-H23 67.5 µM | OVCAR-8 49.5 µM | SF-539 > 100 µM | SK-MEL-2 > 100 µM | SN12C 69.8 µM | SNB-19 63.1 µM | SR 17.4 µM | T47D > 100 µM | U-251 48.3 µM | UACC-257 > 100 µM
